Test results from US8133847B2, “Pyrido[2,3-B]pyrazine derivatives useful as herbicidal compounds” (Syngenta Limited, priority 2006, dated 2012).

Columns and labels:
Test in all cases: Example B1 herbicidal action, post-emergence, 96-cell seed trays, climatic chamber
Format in all cases: in vivo
[1] = test system: Nasturtium officinale (NAAOF); set-up: scale not given here; conditions: Application post-emergence, 1000 mg/l spray equivalent to 1000 g/ha, evaluated after 9 days (100=total damage to plant, 0=no damage to plant)
Outline: (§1)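 Plants at 8–9 days post-sowing (23/17 °C, 13 h light, 50–60% humidity) sprayed post-emergence with 1000 mg/l active ingredient in 10% DMSO, equivalent to 1000 g/ha. Grown on at 24/19 °C, watered twice daily; damage scored after 9 days (0 = none, 100 = total).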

[2] = test system: Amaranthus retroflexus (AMARE); conditions: Application post-emergence, 1000 mg/l spray equivalent to 1000 g/ha, evaluated after 9 days
Outline: as §1

Stellaria media (STEME) = conditions: Application post-emergence, 1000 mg/l spray equivalent to 1000 g/ha, evaluated after 9 days (100=total damage to plant, 0=no damage to plant)
Outline: as §1

Solanum nigrum (SOLNI) = conditions: Application post-emergence, 1000 mg/l spray equivalent to 1000 g/ha, evaluated after 9 days (100=total damage to plant, 0=no damage to plant)
Outline: as §1

Compound | damage to plant, Nasturtium officinale (NAAOF) [1] | damage to plant, Amaranthus retroflexus (AMARE) [2] | damage to plant, Stellaria media (STEME) (Stellaria media (STEME)) | damage to plant, Solanum nigrum (SOLNI) (Solanum nigrum (SOLNI))
CCCC(CCC)C(=O)Oc1c(-c2c(F)ccc(F)c2Cl)c(=O)n(C)c2nccnc12 [Compound C96] | 3 | 5 | 6 | 3
CC(CC(=O)Oc1c(-c2c(F)ccc(F)c2Cl)c(=O)n(C)c2nccnc12)CC(C)(C)C (stereo not drawn) [Compound C98] | 2 | 5 | 1 | 2
Cc1noc(C)c1C(=O)Oc1c(-c2c(F)ccc(F)c2Cl)c(=O)n(C)c2nccnc12 [Compound C100] | 6 | 6 | 3 | 5
C=CCCCCCCCCC(=O)Oc1c(-c2c(F)ccc(F)c2Cl)c(=O)n(C)c2nccnc12 [Compound C101] | 3 | 7 | 2 | 4
Cc1cc(C(=O)Oc2c(-c3c(F)ccc(F)c3Cl)c(=O)n(C)c3nccnc23)c(C)o1 [Compound C102] | 7 | 4 | 7 | 7
CCn1c(=O)c(-c2c(C)cc(C)cc2C)c(OC(=O)C(C)C)c2nccnc21 [Compound C103] | 6 | 4 | 7 | 7
CCn1c(=O)c(-c2cc(C(F)(F)F)cc(C(F)(F)F)c2)c(OC(C)=O)c2nccnc21 [Compound C104] | 4 | 2 | 0 | 0
Cn1c(=O)c(-c2c(F)ccc(F)c2Cl)c(OC(=O)C(C)(C)C)c2nccnc21 [Compound C105] | 6 | 5 | 8 | 5
Cn1c(=O)c(-c2c(Cl)ccc(Cl)c2Cl)c(OC(=O)C(C)(C)C)c2nccnc21 [Compound C108] | 5 | 6 | 5 | 3
Cn1c(=O)c(-c2ccccc2C(F)(F)F)c(OC(=O)C(C)(C)C)c2nccnc21 [Compound C109] | 4 | 3 | 0 | 6
CC(C)C(=O)Oc1c(-c2ccccc2C(F)(F)F)c(=O)n(C)c2nccnc12 [Compound C110] | 6 | 7 | 7 | 6
CCn1c(=O)c(-c2c(F)ccc(F)c2Cl)c(OC(=O)CC(C)(C)C)c2nccnc21 [Compound C112] | 5 | 6 | 7 | 7
C=CCC(=O)Oc1c(-c2c(F)ccc(F)c2Cl)c(=O)n(CC=C)c2nccnc12 [Compound C113] | 6 | 7 | 8 | 6
Cc1ccc(Cl)c(-c2c(OC(=O)C(C)C)c3nccnc3n(C)c2=O)c1F [Compound C114] | 5 | 2 | 6 | 2
CCn1c(=O)c(-c2c(Cl)ccc(C)c2F)c(OC(=O)C(C)C)c2nccnc21 [Compound C115] | 7 | 4 | 8 | 4
Cc1ccc(Cl)c(-c2c(OC(=O)C(C)(C)C)c3nccnc3n(C)c2=O)c1F [Compound C116] | 2 | 0 | 4 | 4
CCn1c(=O)c(-c2c(Cl)ccc(C)c2F)c(OC(=O)C(C)(C)C)c2nccnc21 [Compound C117] | 0 | 0 | 1 | 5

Compound | damage to plant, Nasturtium officinale (NAAOF) [1] | damage to plant, Amaranthus retroflexus (AMARE) [2] | damage to plant, Stellaria media (STEME) (Stellaria media (STEME)) | damage to plant, Solanum nigrum (SOLNI) (Solanum nigrum (SOLNI))
CC(C)C(=O)Oc1c(-c2cc(C(F)(F)F)ccc2Cl)c(=O)n(C)c2nccnc12 [Compound C118] | 7 | 6 | 8 | 6
CCn1c(=O)c(-c2cc(C(F)(F)F)ccc2Cl)c(OC(=O)C(C)C)c2nccnc21 [Compound C119] | 7 | 7 | 8 | 6
Cn1c(=O)c(-c2c(Cl)cc(C(F)(F)F)cc2Cl)c(OC(=O)C(C)(C)C)c2nccnc21 [Compound C120] | 6 | 5 | 7 | 7
Cn1c(=O)c(-c2cc(C(F)(F)F)ccc2Cl)c(OC(=O)C(C)(C)C)c2nccnc21 [Compound C121] | 6 | 5 | 7 | 7
CCn1c(=O)c(-c2cc(C(F)(F)F)ccc2Cl)c(OC(=O)C(C)(C)C)c2nccnc21 [Compound C122] | 4 | 6 | 7 | 6
Cn1c(=O)c(-c2cccc(C(F)(F)F)c2Cl)c(OC(=O)C(C)(C)C)c2nccnc21 [Compound C123] | 4 | 4 | 6 | 6
CC(C)C(=O)Oc1c(-c2cccc(C(F)(F)F)c2Cl)c(=O)n(CC2CC2)c2nccnc12 [Compound C124] | 8 | 9 | 8 | 7
C=CCn1c(=O)c(-c2cccc(C(F)(F)F)c2Cl)c(OC(=O)C(C)C)c2nccnc21 [Compound C125] | 7 | 2 | 7 | 8
Cc1ccc(F)c(-c2c(OC(=O)C(C)C)c3nccnc3n(C)c2=O)c1Cl [Compound C126] | 6 | 6 | 7 | 7
CCn1c(=O)c(-c2c(F)ccc(C)c2Cl)c(OC(=O)C(C)C)c2nccnc21 [Compound C127] | 6 | 2 | 7 | 7
Cc1ccc(F)c(-c2c(OC(=O)C(C)(C)C)c3nccnc3n(C)c2=O)c1Cl [Compound C128] | 6 | 3 | 6 | 7
CC#CCOC(=O)Oc1c(-c2c(Cl)cccc2Cl)c(=O)n(C)c2nccnc12 [Compound C178] | 6 | 4 | 7 | 2
CCn1c(=O)c(-c2ccccc2Cl)c(OC(C)=O)c2nccnc21 [Compound C185] | 8 | 4 | 10 | 4
CCn1c(=O)c(-c2c(F)ccc(F)c2Cl)c(O)c2nccnc21 [Compound D2] | 8 | 6 | 8 | 8
Cn1c(=O)c(-c2ccc(Cl)cc2Cl)c(O)c2nccnc21 [Compound D3] | 8 | 0 | 8 | 8
Cn1c(=O)c(-c2c(F)ccc(F)c2Cl)c(O)c2c1ncc[n+]2[O-] [Compound D6, 7-(2-chloro-3,6-difluorophenyl)-8-hydroxy-5-methyl-1-oxy-5H-pyrido[2,3-b]pyrazin-6-one] | 7 | 5 | 6 | 3
